{"source": "patent US20130316946A1", "about": "“EXTENDED RECOMBINANT POLYPEPTIDE-MODIFIED C-PEPTIDE” (Cebix, Inc., priority 2012, published 2013)", "molecules": {"B1": {"name": "AE864: XTEN polypeptide of 864 amino acid residues, SEQ ID NO:70 (protein)", "chain": "GSPAGSPTSTEEGTSESATPESGPGTSTEPSEGSAPGSPAGSPTSTEEGTSTEPSEGSAPGTSTEPSEGSAPGTSESATPESGPGSEPATSGSETPGSEPATSGSETPGSPAGSPTSTEEGTSESATPESGPGTSTEPSEGSAPGTSTEPSEGSAPGSPAGSPTSTEEGTSTEPSEGSAPGTSTEPSEGSAPGTSESATPESGPGTSTEPSEGSAPGTSESATPESGPGSEPATSGSETPGTSTEPSEGSAPGTSTEPSEGSAPGTSESATPESGPGTSESATPESGPGSPAGSPTSTEEGTSESATPESGPGSEPATSGSETPGTSESATPESGPGTSTEPSEGSAPGTSTEPSEGSAPGTSTEPSEGSAPGTSTEPSEGSAPGTSTEPSEGSAPGTSTEPSEGSAPGSPAGSPTSTEEGTSTEPSEGSAPGTSESATPESGPGSEPATSGSETPGTSESATPESGPGSEPATSGSETPGTSESATPESGPGTSTEPSEGSAPGTSESATPESGPGSPAGSPTSTEEGSPAGSPTSTEEGSPAGSPTSTEEGTSESATPESGPGTSTEPSEGSAPGTSESATPESGPGSEPATSGSETPGTSESATPESGPGSEPATSGSETPGTSESATPESGPGTSTEPSEGSAPGSPAGSPTSTEEGTSESATPESGPGSEPATSGSETPGTSESATPESGPGSPAGSPTSTEEGSPAGSPTSTEEGTSTEPSEGSAPGTSESATPESGPGTSESATPESGPGTSESATPESGPGSEPATSGSETPGSEPATSGSETPGSPAGSPTSTEEGTSTEPSEGSAPGTSTEPSEGSAPGSEPATSGSETPGTSESATPESGPGTSTEPSEGSAP", "modifications": "AE864 XTEN polypeptide"}}, "key": {"[1]": {"assay": "Pharmacokinetics of unmodified C-peptide in beagle dogs after a single S.C. dose", "type": "in vivo", "experimental": "A pharmacokinetic (PK) study was conducted to determine the C-peptide PK profile with unmodified C-peptide in beagle dogs.\nMethods: Two male and one female dog received S.C. the unmodified synthetic human C-peptide (0.5 mg/kg; 0.025 mL/kg) formulated in phosphate buffered saline (20 mg/mL). Dogs were bled by venipuncture and blood samples were collected at predetermined time points over 14 days. Plasma samples were obtained after centrifugation of the blood (3,000 rpm for 10 minutes) and stored at −80° C. until analysis. A CRO with Good Laboratory Practice (GLP) capabilities (MicroConstants, Inc.; San Diego, Calif.) performed the bioanalytical work. Plasma levels of C-peptide were measured by an enzyme-linked immunosorbant assay (ELISA) technique based on a commercial kit for human C-peptide determination (Mercodia; catalog number 10-1136-01) using the manufacturer's instructions. Results were expressed as C-peptide concentrations. For the PK analysis, the below quantitation level (BQL) was treated as zero and nominal time points were used for all calculations. PK parameters were determined by standard model independent methods based on the individual plasma concentration-time data for each animal using model 200 in WinNonlin Professional 5.2.1 (Pharsight Corp., Mountain View, Calif.)."}, "[2]": {"details": "in vivo; cited from earlier work"}, "[3]": {"assay": "Stability of C-peptide-XTEN in monkey plasma", "type": "in vitro ADME", "details": "37° C., over 7 days, SDS PAGE / Western", "experimental": "A fusion protein containing XTEN_AE864 fused to the N-terminus of C-peptide is incubated in monkey plasma and rat kidney lysate for up to 7 days at 37° C. Samples are withdrawn at time 0, Day 1 and Day 7 and analyzed by SDS PAGE followed by detection using Western analysis and detection with antibodies against C-peptide. […] The in vivo stability of the fusion protein is tested in plasma samples wherein the C-peptide_AE864 is immunoprecipitated and analyzed by SDS PAGE as described above."}, "[4]": {"assay": "Stability of C-peptide-XTEN in rat kidney lysate", "type": "in vitro ADME", "details": "37° C., over 3 days, SDS PAGE / Western", "experimental": "A fusion protein […] followed by detection using Western analysis and detection with antibodies against C-peptide. […] The in vivo stability of the fusion protein is tested in plasma samples wherein the C-peptide_AE864 is immunoprecipitated and analyzed by SDS PAGE as described above."}}, "data": [{"molecule": "CC(C)C[C@H](NC(=O)[C@H](C)NC(=O)[C@H](CC(C)C)NC(=O)[C@@H]1CCCN1C(=O)[C@H](CCC(N)=O)NC(=O)[C@H](CC(C)C)NC(=O)[C@H](CO)NC(=O)CNC(=O)[C@H](C)NC(=O)CNC(=O)[C@@H]1CCCN1C(=O)CNC(=O)CNC(=O)CNC(=O)[C@H](CC(C)C)NC(=O)[C@H](CCC(=O)O)NC(=O)[C@@H](NC(=O)[C@H](CCC(N)=O)NC(=O)CNC(=O)[C@@H](NC(=O)[C@H](CCC(N)=O)NC(=O)[C@H](CC(C)C)NC(=O)[C@H](CC(=O)O)NC(=O)[C@H](CCC(=O)O)NC(=O)[C@H](C)NC(=O)[C@@H](N)CCC(=O)O)C(C)C)C(C)C)C(=O)N[C@@H](CCC(=O)O)C(=O)NCC(=O)N[C@@H](CO)C(=O)N[C@@H](CC(C)C)C(=O)N[C@@H](CCC(N)=O)C(=O)O", "note": "[CP-AQ, human C-peptide]", "values": [{"measurement": "circulating levels of C-peptide below quantitation level (BQL)", "setting": "[1]; dog, in vivo, sc", "value": "BQL within half a day"}, {"measurement": "tolerability (clinical abnormalities)", "setting": "[1]; dogs, single S.C. dose 0.5 mg/kg", "value": "well tolerated"}]}, {"molecule": "Aspart", "values": [{"measurement": "peak time of effect", "setting": "[2]", "value": "around 30 minutes"}]}, {"molecule": "Glargine insulin", "values": [{"measurement": "duration of activity", "setting": "[2]", "value": 24, "unit": "h"}, {"measurement": "peak time of effect", "setting": "[2]", "value": "no peak effect"}]}, {"molecule": "Glulisine", "values": [{"measurement": "peak time of effect", "setting": "[2]", "value": "around 30 minutes"}]}, {"molecule": "Lispro", "values": [{"measurement": "peak time of effect", "setting": "[2]", "value": "around 30 minutes"}]}, {"molecule": "Regular insulin", "values": [{"measurement": "onset of action", "setting": "[2]", "value": "30 to 60", "unit": "min"}]}, {"molecule": "B1", "values": [{"measurement": "degradation in monkey plasma", "setting": "[3]", "value": "negligible signs of degradation"}, {"measurement": "degradation in rat kidney lysate", "setting": "[4]", "value": "rapidly degraded"}]}]}
